# Key:
# C. glabrata biofilm = assay: Biofilm biomass by crystal violet (CV) assay; type: cell-based, Candida glabrata
# Experimental: (§1) For all bacterial strains considered in the study, biofilm was performed on a 96‐well plate inoculated with 200 µL of a bacterial suspension 1 × 10^6 CFU/mL and incubated 24 h at 37°C. After incubation for 4 h at 37°C, the medium was aspirated, non‐adherent cells were removed, washed with PBS and added with 200 µL of fresh medium. […] Similarly, to perform fungal biofilm, the different Candida species were grown for 24 h at 28°C on a multi‐wells plate, washed twice with sterile PBS, and then resuspended at 37°C in RPMI 1640 plus 10% FBS at 2.5 × 10^7 cells. After incubation for 3 h at 37°C in six‐well polystyrene plates, the medium was aspirated, non‐adherent cells were removed and washed with PBS.
# (§2) To quantify bacterial and Candida biofilm biomass, CV, a dye able to color the biofilm matrix, was used. Firstly, after the removal of supernatant and washing with PBS, biofilm was fixed adding 100 µL of 99% methanol for 15 min. Then, methanol was rinsed off and the plates were air‐dried. Subsequently, 100 µL of a 0.1% of CV solution were added to wells and, after 20 min of contact, the plates were washed under running tap water. To dissolve the bounded CV, 150 µL of 33% of glacial acetic acid were added to wells. The absorbance was measured at 590 nm using an automatic microplate reader, Tecan Sunrise (Tecan Group Ltd., Männedorf, Switzerland).
# C. tropicalis biofilm = assay: Biofilm biomass by crystal violet (CV) assay; type: cell-based, Candida tropicalis
# Experimental: as §1, §2
# E. coli biofilm = assay: Biofilm metabolic activity by XTT-reduction assay; type: cell-based, Escherichia coli; details: substance alone at MIC
# Experimental: as §1
# (§3) The biofilm metabolic activity was evaluated by XTT assay, that highpoints the activity through the reduction of the tetrazolium salt to formazan. After the removal of supernatant and washing with PBS, a solution of XTT‐menadione solution were added to wells. The XTT‐menadione was prepared dissolving XTT powder in prewarmed PBS (37°C) at 0.5 g/L. The solution was sterilized through a 0.22 μm pore size filter. Before each assay, the XTT solution was thawed and supplemented with menadione, a 10 mM stock dissolved in acetone to a final concentration 1 μM. Plates were incubated for 3 h at 37°C in the dark and then the absorbance was measured at 492 nm using the microplate reader, Tecan Sunrise.
# ESBL-Ec biofilm = assay: Biofilm metabolic activity by XTT-reduction assay; type: cell-based, Escherichia coli; details: substance alone at MIC
# Experimental: as §1, §3
# C. albicans AIDS 68 = assay: MIC and MFC by microbroth dilution; type: cell-based; details: Candida albicans, AIDS68
# Experimental: (§4) No substance was added, in one well, for growth control. A bacterial suspension of 1 × 10^8 CFU/mL was inoculated into all wells of the plate and incubated for 24 h at 37°C. […] The dilutions ranged from 4 to 2000 µg/mL for the substances. The inoculum size was about 2.5×10^3 cells/mL. The plates were incubated at 28°C for 24–48 h. The MIC was determined as the lowest substances' concentration where no visible bacterial or fungal growth was observed. […] Each antimicrobial assay was performed in triplicate.
# C. tropicalis 45,615 = assay: MIC and MFC by microbroth dilution; type: cell-based; details: Candida tropicalis
# Experimental: as §4
# C. krusei biofilm = assay: Biofilm metabolic activity by XTT-reduction assay; type: cell-based, Candida krusei
# Experimental: as §1, §3
# C. krusei 44956 = assay: MIC and MFC by microbroth dilution; type: cell-based, Candida krusei; details: Pichia kudriavzevii, 44956
# Experimental: as §4
# MRSA biofilm = assay: Biofilm metabolic activity by XTT-reduction assay; type: cell-based, Staphylococcus aureus; details: substance alone at MIC
# Experimental: as §1, §3
# S. aureus biofilm = assay: Biofilm metabolic activity by XTT-reduction assay; type: cell-based, Staphylococcus aureus; details: substance alone at MIC
# Experimental: as §1, §3
# [1] = biofilm in formation, sub-MIC concentrations alone or in combination (Table 5), listed as C
# [2] = preformed biofilm (24 h), substance alone at MIC
# [3] = preformed biofilm, sub-MIC concentrations alone or in combination (Table 5), listed as C
compound,measurement,setting,value
"Cc1ccc(C(C)C)cc1O [Carvacrol, 2‐methyl‐5‐isopropyl phenol]",Percentage of biomass reduction,C. glabrata biofilm; [1],64.9%
same,Percentage of biomass reduction,C. glabrata biofilm; [2],52.9%
same,Percentage of biomass reduction,C. glabrata biofilm; [3],44.3%
same,Percentage of biomass reduction,C. tropicalis biofilm; [1],25.3%
same,Percentage of biomass reduction,C. tropicalis biofilm; [2],57.4%
same,Percentage of biomass reduction,C. tropicalis biofilm; [3],20.8%
same,Percentage of metabolic activity reduction,E. coli biofilm; biofilm in formation (4 h),62%
same,Percentage of metabolic activity reduction,E. coli biofilm; preformed biofilm (24 h),28.5%
same,Percentage of metabolic activity reduction,ESBL-Ec biofilm; biofilm in formation (4 h),57%
same,Percentage of metabolic activity reduction,ESBL-Ec biofilm; preformed biofilm (24 h),22%
same,MFC,C. albicans AIDS 68,500 µg/mL
same,MIC,C. albicans AIDS 68,250 µg/mL
same,MFC,"C. tropicalis 45,615",500 µg/mL
same,MIC,"C. tropicalis 45,615",500 µg/mL
same,Percentage of metabolic activity reduction,"C. krusei biofilm; biofilm in formation (3 h), substance alone at MIC",89.4%
same,Percentage of metabolic activity reduction,C. krusei biofilm; [1],30%
same,Percentage of metabolic activity reduction,C. krusei biofilm; [2],89.4%
same,Percentage of metabolic activity reduction,C. krusei biofilm; [3],25%
same,MFC,C. krusei 44956,500 µg/mL
same,MIC,C. krusei 44956,500 µg/mL
same,Percentage of metabolic activity reduction,MRSA biofilm; biofilm in formation (4 h),24.6%
same,Percentage of metabolic activity reduction,MRSA biofilm; preformed biofilm (24 h),45.6%
same,Percentage of metabolic activity reduction,S. aureus biofilm; biofilm in formation (4 h),54.9%
same,Percentage of metabolic activity reduction,S. aureus biofilm; preformed biofilm (24 h),88%

# Reference: PMC12541891 (MicrobiologyOpen, 2025)
